Assay results from patent US20130226069A1, “ACNE THERAPEUTIC AGENT AND SEBUM SECERNENT INHIBITOR WHICH COMPRISE INDOLE-3-ALKYLCARBO XYLICACID, AND KITS FOR PHOTODYNAMIC THERAPY CONTAINING THE SAME” (WELSKIN CO., LTD., priority 2007, published 2013).

Key:
[1] = Sebum secretion inhibition by IAA and IPL, half-face; assay type: in vivo
Protocol: As described in Example 2, IAA was applied to only half of face and 20 J of IPL was irradiated. The face was irradiated 3 times at 2 weeks intervals and the amount of sebum secretion was measured.

[2] = Improvement of acne by IAA and light, half-face, count of inflammatory lesions; assay type: in vivo
From the text: IAA was applied to only half of face and 20 J of IPL was irradiated. The face was irradiated 3 times at 2 weeks intervals and the number of inflammatory lesions was counted.

S. aureus W-1-14 = assay: Bacteriocidal effect of IAA with or without IPL irradiation on S. aureus, colony count; assay type: cell-based, Staphylococcus aureus
Protocol: (§1) P. acnes 706486 and S. aureus W-1-14 was used for this experiment. Mueller Hinton II broth (Becton, Dickinson Co., Sparks, U.S.A) was used for culture of bacteria. The cultured S. aureus colony was dissolved with phosphate buffered saline (PBS, Invitrogen Co., NY, U.S.A) such that the McFarland turbidity became 0.5. The resultant bacterial solution was at the concentration of […]. Then, the bacterial solution was further diluted to the concentration of 1×10^8/ml and 10 μl of the bacterial solution was spread onto the Mueller Hinton II agar (Becton, Dickinson Co., Sparks, U.S.A) plate followed by drying in clean bench for 30 min. IAA was dissolved with Dulbecco's phosphate buffered saline (DPBS, Invitrogen Co., NY, U.S.A) to obtain samples of IAA concentration of 20 mM, 10 mM, 5 mM, 1 mM and 0.5 mM. Three minutes after adding 4 ml of 0 mM, 0.5 mM, 1 mM, 5 mM, 10 mM, and 20 mM IAA solution to 6 bacterial solution inoculated mediums respectively, Intermittent Pulse Laser (IPL, Ellipse Flex DDD, Denmark) was irradiated to the mediums. 10 J/cm^2 of the IPL of wavelength of 400 nm to 720 nm was irradiated to the mediums, using an applicator equipped with a filter. One minute after IPL irradiation, the mediums were washed for two times with PBS and incubated at 37° C. for 24 hrs and then the number of colonies was counted respectively. Four minutes after adding 4 ml of 0 mM, 0.5 mM, 1 mM, 5 mM, 10 mM, and 20 mM IAA solution to another 6 bacterial solution inoculated mediums, the mediums were treated as the above-mentioned process except that IPL was not irradiated, and then the number of colonies was counted respectively. The above-mentioned process was repeated except that P. acnes inoculated mediums were employed in place of S. aureus inoculated mediums and cultured in an anaerobic chamber substituted with nitrogen, and then the number of colonies was counted.

P. acnes 706486 = assay: Bacteriocidal effect of IAA with or without IPL irradiation on P. acnes, colony count; assay type: cell-based, Propionibacterium acnes
Protocol: as §1

[3] = IAA with IPL, irradiated 3 times at 2 weeks intervals

O=C(O)Cc1c[nH]c2ccccc12 [IAA, Indole-3-acetic acid]
sebum secretion (mean ± SD), T1 ([1]; IAA + IPL 20 J, after 2 weeks, n = 14, baseline T0 99.64 ± 56.93): 114.71 ± 63.83 | sebum secretion (mean ± SD), T2 ([1]; IAA + IPL 20 J, after 4 weeks, n = 14, baseline T0 99.64 ± 56.93): 70.43 ± 42.80 | sebum secretion (mean ± SD), T3 ([1]; IAA + IPL 20 J, after 6 weeks, n = 14, baseline T0 99.64 ± 56.93): 65.79 ± 27.90 | Change of sebum secretion T1-T0 (mean ± SD) ([1]; IAA + IPL, 2 weeks versus baseline, p 0.433): 15.07 ± 69.70 | Change of sebum secretion T2-T0 (mean ± SD) ([1]; IAA + IPL, 4 weeks versus baseline, p 0.032): −29.21 ± 45.67 | Change of sebum secretion T3-T0 (mean ± SD) ([1]; IAA + IPL, 6 weeks versus baseline, p 0.015): −33.86 ± 44.98 | inhibitory effect of sebum secretion [1, 3]: significant inhibitory effect of sebum secretion | Number of inflammatory lesion (mean ± SD), T1 ([2]; IAA + IPL 20 J, after 2 weeks, n = 14, baseline T0 16.21 ± 9.18): 15.50 ± 9.03 | Number of inflammatory lesion (mean ± SD), T2 ([2]; IAA + IPL 20 J, after 4 weeks, n = 14, baseline T0 16.21 ± 9.18): 13.93 ± 8.54 | Number of inflammatory lesion (mean ± SD), T3 ([2]; IAA + IPL 20 J, after 6 weeks, n = 14, baseline T0 16.21 ± 9.18): 13.93 ± 8.30 | Change in number of inflammatory lesion T1-T0 (mean ± SD) ([2]; IAA + IPL, 2 weeks versus baseline, p 0.246): −0.71 ± 2.20 | Change in number of inflammatory lesion T2-T0 (mean ± SD) ([2]; IAA + IPL, 4 weeks versus baseline, p 0.024): −2.29 ± 3.36 | Change in number of inflammatory lesion T3-T0 (mean ± SD) ([2]; IAA + IPL, 6 weeks versus baseline, p 0.026): −2.29 ± 3.41 | improvement of acne (number of inflammatory lesions) [2, 3]: significant improvement | number of colonies (S. aureus W-1-14; 20 mM IAA solution, without IPL irradiation): 60 % of control group | number of colonies (S. aureus W-1-14; IPL irradiation and 0.5 mM IAA solution): 63 % of control group | number of colonies (S. aureus W-1-14; IPL irradiation and 1 mM IAA solution): 32 % of control group | number of colonies (P. acnes 706486; 5 mM or more IAA solution, IPL not irradiated): 68 % of control group | growth of bacteria (P. acnes 706486; 20 mM IAA solution, with IPL irradiation): no growth of bacteria | inhibitory effects on P. acnes proliferation (P. acnes 706486; IAA with IPL irradiation, 10 J/cm^2, 400 nm to 720 nm): dramatic inhibitory effects
